Here are results for 55 compounds from patent publication US9187424B1, “Aryl dihydropyridinones and piperidinone MGAT2 inhibitors” (Bristol-Myers Squibb Company, priority 2011, dated 2015).

Molecules are shown by their SMILES.

One may read the IC50 as the concentration needed to halve the response being measured.

Human MGAT-2, sequence (Q3SYC2 whole entry): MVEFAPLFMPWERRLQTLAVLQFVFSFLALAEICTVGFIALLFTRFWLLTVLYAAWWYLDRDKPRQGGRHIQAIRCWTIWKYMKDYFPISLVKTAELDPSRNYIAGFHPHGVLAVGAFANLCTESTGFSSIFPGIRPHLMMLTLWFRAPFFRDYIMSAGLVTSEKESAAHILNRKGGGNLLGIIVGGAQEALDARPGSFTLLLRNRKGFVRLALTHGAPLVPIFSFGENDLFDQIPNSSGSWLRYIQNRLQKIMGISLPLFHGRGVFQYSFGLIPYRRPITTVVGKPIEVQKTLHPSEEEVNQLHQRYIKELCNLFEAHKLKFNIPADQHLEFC

This experiment addresses Human MGAT-2 (Homo sapiens (Human), UniProt Q3SYC2). The experiment can be described thus: MGAT LCMS Assay (human MGAT-2).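 Note: diolein product quantified by LC/MS with positive APCI, expressed as peak area ratio versus an internal standard, and this ratio used to derive IC50.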 Particulars: human MGAT-2 membranes expressed in Sf9 cells; 2-oleoylglycerol and oleoyl-Coenzyme A; read-out: h-MGAT2 IC50 (nM) LCMS Assay. The format is biochemical.
As for `CS(=O)(=O)CC(=O)NC1=C(c2ccc(OCC(F)F)cc2)CC(c2ccc(OCCCC(F)(F)F)cc2)(C(F)(F)F)NC1=O` (stereo not shown) [Example 251], the IC50 is 3 nM.

Regarding `Cc1ccc(C2=C(C(=O)Nc3cc(C)no3)C(=O)NC(c3ccc(OCCCC(F)(F)F)cc3)(C(F)(F)F)C2)cc1` (stereo not shown) [Example 281], the IC50 stood at 3 nM. Regarding `CCOc1ccc(C2=C(c3nn[nH]n3)C(=O)NC(c3ccc(OCCCCCC(F)(F)F)c(F)c3)(C(F)(F)F)C2)cc1` (stereo not shown) [Example 305], the IC50 was 94 nM. Regarding `CCOc1ccc(C2=C(C#N)C(=O)NC(c3ccc(OCCCC(F)(F)F)cc3)(C(F)(F)F)C2)cc1F` (stereo not shown) [Example 264], the IC50 came out at 46 nM. As for `COc1ccc(Cn2cc(C3(C(F)(F)F)CC(c4ccc(C)cc4)=C(c4nn[nH]n4)C(=O)N3)cn2)cc1` (stereo not shown) [Example 182], the figure is 2050 nM. For `Cc1ccc(C2=C(Oc3ccccc3)C(=O)N[C@@](c3ccc(OCCCC(F)(F)F)cc3)(C(F)(F)F)C2)cc1` [Example 106, (S)-3-Phenoxy-4-p-tolyl-6-(4-(4,4,4-trifluorobutoxy)phenyl)-6-(trifluoromethyl)-5,6-dihydropyridin-2(1H)-one] the value was 552 nM; for `Cc1ccc(C2=C(C(=O)Nc3ccccc3OC(F)(F)F)C(=O)NC(c3ccc(OCCC(F)(F)F)cc3)(C(F)(F)F)C2)cc1` (stereo not shown) [Example 137], 252 nM.

For the compound `Cc1ccc(C2=C(C(=O)Nc3ccc(C#N)cc3)C(=O)NC(c3ccc(OCCCC(F)(F)F)cc3)(C(F)(F)F)C2(F)F)cc1` (stereo not shown) [Example 103, N-(4-Cyanophenyl)-5,5-difluoro-2-oxo-4-p-tolyl-6-(4-(4,4,4-trifluorobutoxyl)phenyl)-6-(trifluoromethyl)-1,2,5,6-tetrahydropyridine-3-carboxamide], the half-inhibitory concentration (IC50) worked out at 645 nM. On to `COc1ccc(C(=O)NC2=C(c3ccc(C)cc3)CC(c3cnn(CCCCC(F)(F)F)c3)(C(F)(F)F)NC2=O)cc1` (stereo not shown) [Example 229], for which the concentration for half-maximal inhibition (IC50) turned out to be 25 nM. As for `Cc1ccc(C2=C(NC(=O)CNS(C)(=O)=O)C(=O)NC(c3ccc(OCCCC(F)(F)F)cc3)(C(F)(F)F)C2)cc1` (stereo not shown) [Example 297], the figure is 639 nM; as for `Cc1ccc(C2=C(c3nn[nH]n3)C(=O)NC(c3cnn(CCCCC(F)(F)F)c3)(C(F)(F)F)C2)cc1` (stereo not shown) [Example 12, 3-(2H-Tetrazol-5-yl)-4-p-tolyl-6-(trifluoromethyl)-6-(1-(5,5,5-trifluoropentyl)-1H-pyrazol-4-yl)-5,6-dihydropyridin-2(1H)-one], 374 nM; as for `Cc1ccc(C2=C(NC(=O)c3cn(C)nn3)C(=O)NC(c3ccc(OCCCC(F)(F)F)cc3)(C(F)(F)F)C2)cc1` (stereo not shown) [Example 246], 36 nM. For `COc1ccc(NC(=O)C2=C(c3ccc(C)cc3)CC(C)(C(=O)NCCCc3ccccc3)NC2=O)cc1` (stereo not shown) [Example 175] the value was 264 nM; for `Cc1ccc(C2=C(c3nn[nH]n3)C(=O)NC(c3ccc(OCC4CC(F)(F)C4)cc3)(C(F)(F)F)C2)cc1` (stereo not shown) [Example 288], 19 nM. As for `CCCCCCCC#CC1(C(F)(F)F)CC(c2ccc(C)cc2)=C(c2cn[nH]n2)C(=O)N1` (stereo not shown) [Example 196], the figure is 826 nM; as for `COc1ccc(NC(=O)C2=C(c3ccc(C)cc3F)CC(c3ccc(OCCCC(F)(F)F)cc3)(C(F)(F)F)NC2=O)cc1` (stereo not shown) [Example 296], 2 nM; as for `Cc1ccc(C2=C(NC(=O)c3ccc(OC(F)F)cc3)C(=O)NC(c3cnn(CCCCCC(F)(F)F)c3)(C(F)(F)F)C2)cc1` (stereo not shown) [Example 201], 24 nM. For `COc1ccc(C2=C(C#N)C(=O)NC(c3ccc(OCCCC(F)(F)F)cc3)(C(F)(F)F)C2)cc1C` (stereo not shown) [Example 215], the IC50 was determined as 11 nM. For `Cc1ccc(C2=C(NC(=O)[C@@H](C)O)C(=O)NC(c3ccc(OCCCC(F)(F)F)cc3)(C(F)(F)F)C2)cc1` (stereo partly shown) [Example 253] the value was 411 nM. On to `O=C1NC(c2ccc(OCCCC(F)(F)F)cc2)(C(F)(F)F)CC(c2ccc(-n3cccn3)cc2)=C1c1nn[nH]n1` (stereo not shown) [Example 236], for which the IC50 came to 489 nM. For `COc1ccc(C(=O)NC2=C(c3ccc(C)cc3)C(F)(F)C(c3ccc(OCCC(F)(F)F)cc3)(C(F)(F)F)NC2=O)cc1` (stereo not shown) [Example 162] the value was 214 nM. For `CCCCCCC#CC1(C(F)(F)F)CC(c2ccc(C)cc2)=C(NC(=O)c2cccnc2)C(=O)N1` (stereo not shown) [Example 300] the value was 11 nM; for `Cc1cc(C2=C(C#N)C(=O)NC(c3ccc(OCCCC(F)(F)F)cc3)(C(F)(F)F)C2)ccc1Cl` (stereo not shown) [Example 221], 152 nM.

Turning to `Cc1ccc(C2=C(C(=O)NC3CCCC3)C(=O)NC(c3ccc(OCCCC(F)(F)F)cc3)(C(F)(F)F)C2(F)F)cc1` (stereo not shown) [Example 141], the IC50 worked out at 459 nM. For `COc1ccc(C2=C(C#N)C(=O)NC(c3ccc(OCCCC(F)(F)F)cc3)(C(F)(F)F)C23CC3)cc1` (stereo not shown) [Example 14, 8-(4-Methoxyphenyl)-6-oxo-4-(4-(4,4,4-trifluorobutoxyl)phenyl)-4-(trifluoro-methyl)-5-azaspiro[2.5]oct-7-ene-7-carbonitrile] the value was 2050 nM.

As to `Cc1ccc(C2=C(c3cn[nH]n3)C(=O)NC(C#CCCC(C)C)(C(F)(F)F)C2)cc1` (stereo not shown) [Example 199], the IC50 worked out at 16 nM. Regarding `O=C1NC(c2ccc(OCCCC(F)(F)F)cc2)(C(F)(F)F)CC(c2ccc3c(c2)CCO3)=C1c1nn[nH]n1` (stereo not shown) [Example 237], the IC50 came to 130 nM. For the compound `N#CC1=C(c2ccc(OC(F)(F)F)c(F)c2)CC(c2ccc(OCCCC(F)(F)F)cc2)(C(F)(F)F)NC1=O` (stereo not shown) [Example 261], the IC50 stood at 1220 nM. For `CCNC(=O)NC1=C(c2ccc(C)cc2)CC(c2ccc(OCCCC(F)(F)F)cc2)(C(F)(F)F)NC1=O` (stereo not shown) [Example 255] the value was 702 nM; for `Cc1ccc(C2=C(c3nn[nH]n3)C(=O)NC(c3ccc(Br)cc3)(C(F)(F)F)C2)cc1` (stereo not shown) [Example 233], 639 nM.

Regarding `COc1ccc(C2=C(NC(=O)c3cc(C)no3)C(=O)NC(c3ccc(OCCCC(F)(F)F)cc3)(C(F)(F)F)C2)cc1` (stereo not shown) [Example 176], the IC50 is 3 nM. For `O=C1NC(c2ccc(OCCCC(F)(F)F)cc2)(C(F)(F)F)CC(c2ccc3c(c2)OCCO3)=C1c1nn[nH]n1` (stereo not shown) [Example 209], the IC50 came out at 37 nM. For `O=C1NC(c2ccc(OCCCC(F)(F)F)cc2)(C(F)(F)F)CC(c2cccc(Cl)c2)=C1c1nn[nH]n1` (stereo not shown) [Example 99] the value was 795 nM; for `Cc1ccc(C2=C(c3nn[nH]n3)C(=O)NC(c3cccc(OCCCC(F)(F)F)c3)(C(F)(F)F)C2)cc1` (stereo not shown) [Example 267], 796 nM.

In the case of `COc1ccc(C2=C(c3nn[nH]n3)C(=O)NC(c3ccc(OCCCCCC(F)(F)F)cc3)(C(F)(F)F)C2)cc1` (stereo not shown) [Example 247], the IC50 came to 51 nM. For the compound `CCOc1ccc(C2=C(c3nn[nH]n3)C(=O)NC(c3ccc(OCCCC(F)(F)F)cc3)(C(F)(F)F)C2)cc1` (stereo not shown) [Example 92], the IC50 came to 136 nM. For `Cc1ccc(C2=C(C#N)C(=O)NC(c3ccc(OCCCC(F)(F)F)cc3)(C(F)(F)F)C2(F)F)cc1` (stereo not shown) [Example 160] the value was 5400 nM; for `CN(C)c1ccc(C2=C(c3nn[nH]n3)C(=O)NC(c3ccc(OCCCC(F)(F)F)cc3)(C(F)(F)F)C2)cc1` (stereo not shown) [Example 238], 7 nM. For `COc1cccc(C2=C(c3nn[nH]n3)C(=O)NC(c3ccc(OCCCC(F)(F)F)cc3)(C(F)(F)F)C2)c1` (stereo not shown) [Example 100] the value was 1580 nM; for `CCCCCNC(=O)c1ccc(C2(C)CC(c3ccc(C)cc3)=C(C(=O)Nc3ccc(OC)cc3)C(=O)N2)cc1` (stereo not shown) [Example 161], 1260 nM; for `O=C1NC(c2ccc(OCCCC(F)(F)F)cc2)(C(F)(F)F)CC(c2ccc(Br)cc2)=C1c1nn[nH]n1` (stereo not shown) [Example 234], 40 nM.

On to `CCCCCC#CC1(C(F)(F)F)CC(c2ccc(C)cc2)=C(c2nn[nH]n2)C(=O)N1` (stereo not shown) [Example 293], for which the IC50 was determined as 7 nM. As for `CCCCCCCCNC(=O)C1(C)CC(c2ccc(C)cc2)=C(C#N)C(=O)N1` (stereo not shown) [Example 177], the IC50 was 399 nM. For `O=C1NC(c2ccc(OCCCCCC(F)(F)F)cc2F)(C(F)(F)F)CC(c2ccc(OC(F)F)cc2)=C1c1nn[nH]n1` (stereo not shown) [Example 274] the value was 1 nM; for `CCCCCCCc1cnc(C2(C(F)(F)F)CC(c3ccc(C)cc3)=C(c3nn[nH]n3)C(=O)N2)s1` (stereo not shown) [Example 292], 304 nM; for `Cc1ccc(C2=C(c3nn[nH]n3)C(=O)NC(c3ccc(OCCCCCC(F)(F)F)c(C)c3)(C(F)(F)F)C2)cc1` (stereo not shown) [Example 287], 13 nM. As for `CCCCCCC#CC1(C(F)(F)F)CC(c2ccc(C)cc2)=C(NC(=O)CNS(C)(=O)=O)C(=O)N1` (stereo not shown) [Example 298], the figure is 2 nM; as for `O=C1NC(c2ccc(OCCCC(F)(F)F)cc2)(C(F)(F)F)CC(c2ccc(OC(F)F)cc2)=C1c1nn[nH]n1` (stereo not shown) [Example 245], 46 nM. For `COc1ccc(C2=C(c3nn[nH]n3)C(=O)NC(C#CCCC(C)C)(C(F)(F)F)C2)cc1` (stereo not shown) [Example 295] the value was 183 nM. `O=C1NC(c2ccc(OCCCCCC(F)(F)F)c(F)c2)(C(F)(F)F)CC(c2ccc3ccccc3c2)=C1c1nn[nH]n1` (stereo not shown) [Example 309]: the concentration for half-maximal inhibition (IC50) was 1 nM.

Turning to `O=C1NC(c2ccc(OCCCC(F)(F)F)cc2)(C(F)(F)F)CC(c2ccc3c(c2)OCO3)=C1c1nn[nH]n1` (stereo not shown) [Example 211], the IC50 turned out to be 97 nM. As for `COc1cc(C2=C(C#N)C(=O)NC(c3ccc(OCCCC(F)(F)F)cc3)(C(F)(F)F)C2)ccc1C` (stereo not shown) [Example 262], the figure is 96 nM; as for `O=C1NC(c2ccc(OCCCCCC(F)(F)F)c(F)c2)(C(F)(F)F)CC(c2ccc3ccccc3c2)=C1c1nn[nH]n1` (stereo not shown) [Example 304], 6 nM. For `CCCCOc1ccc(C2(C)CC(c3ccc(C)cc3)=C(C#N)C(=O)N2)cc1` (stereo not shown) [Example 107, 6-(4-Butoxyphenyl)-6-methyl-2-oxo-4-p-tolyl-1,2,5,6-tetrahydropyridine-3-carbonitrile] the value was 93 nM; for `Cc1ccc(C2=C(NC(=O)c3nnn[nH]3)C(=O)NC(c3ccc(OCCCC(F)(F)F)cc3)(C(F)(F)F)C2)cc1` (stereo not shown) [Example 310], 4 nM.
